From patent publication US20230024521A1, “JAK INHIBITORS” (Vimalan Biosciences, Inc., priority 2019, published 2023)
Read-outs that look alike come from different tables or passages of the source.

Test system: JAK1/JAK3: IL-2 stimulated STAT5 phosphorylation
Test: JAK1/JAK3: IL-2 stimulated STAT5 phosphorylation in PBMCs
Type: cell-based, human
Settings: PBMC
Procedure: Example B: JAK1/JAK3: IL-2 Stimulated STAT5 Phosphorylation in PBMCs
Human PBMCs: (Precision Biomedicine)
Thaw as per instructions. Thaw frozen PBMCs in 37° C. water bath. Transfer cell suspension to 9 mL of pre-warmed complete media (RPMI+10% FBS+L-Glu+Pen/Strep). Centrifuge at 400×g for 5 min and wash cells with 10 mL of complete media. Resuspend pellet for a cell-count of 3×10^6 cells/mL
Seed cells into 96-deep well at 80 uL/well based on experimental plate layout. Add 10 μL of (10× conc.) of different concentrations of compounds to all wells except controls (unstimulated) and mix it with 200 uL multichannel pipet. Add 10 uL of complete RPMI media with same % DMSO in controls. For dilution of compounds and dilution range please refer to appendix. Incubate in 5% CO2 incubator for 1 hour at 37° C. Add 10 μL of (10× conc.) IL-2 (final conc. 50 ng/mL) to each well except unstimulated and unstained controls and incubate further for 20 minutes in water bath at 37° C.
Add 900 μL of prewarmed 1× Fix/Lyse solution (Appendix) and mix it properly using 1000 μL multichannel pipet; incubate further on water bath at 37° C. for 10 minutes. Centrifuge at 800×g for 5 minutes, remove 900 uL of supernatant, and add 1000 μL of freshly prepared wash buffer or 1× PBS. Centrifuge at 800×g for 5 minutes, remove 900 μL of supernatant, and resuspend the pellet in remaining buffer.
Disrupt the pellet by gentle tapping and add 1000 μL of ice cold BD Phosflow Perm Buffer III and incubate further on ice for 30 minutes. Centrifuge at 800×g for 5 minutes. Wash two more times with 1000 μL of BD Stain buffer, remove supernatant except 100 uL of buffer after the last wash.
Disrupt the pellet by gentle tapping, add 100 uL of stain buffer and 5 μL of pSTAT5_Alex488 […] in all appropriate wells and mix properly using 200 μL multichannel pipet. Incubate plate overnight at […]. Add 900 μL of BD stain buffer and centrifuge at 800×g for 5 minutes. Wash one additional time with 1000 μL of buffer. Finally resuspend the pellet in 300 uL of BD stain buffer.
Transfer the cells to 96-well v-bottom plate and acquire the cells in Beckman Coulter Cytoflex. Acquiring cells in Flow Cytometer: Keep the threshold value to 250. Acquire at least 8,000-10,000 cells.
RPMI 1640 Complete Medium: RPMI 1640 media+10% FBS.
Cytokine dilution: 1) IL-2 Stock at 100 ug/mL. Prepare a 0.5 ug/mL dilution by adding 5 uL of stock into 995 uL of cRPMI. Keep it on ice until used.
Lyse/Fix buffer preparation: Dilute 5× Lyse/Fix buffer to 1× using MQ water and keep at 37° C. until used.
BD Phosflow perm buffer III: Keep on ice/fridge

[1] = human PBMCs, IL-2 50 ng/mL, pSTAT5 by flow cytometry, read-out: IL-2/J1J3/pS5: IC50 GeoMean
[2] = Homo sapiens, read-out: IL-2/J1J3/pS5: IC50 GeoMean (nM)

| IC50 [1] [nM] | SMILES | IC50 [2] [nM] |
| --- | --- | --- |
| < 100 | CC[C@H](Cn1ccc2cnc(Nc3cnn(CC(N)=O)c3)nc21)C(C)C [Example 1, (S)-2-(4-((7-(2-ethyl-3-methylbutyl)-7H-pyrrolo[2,3-d]pyrimidin-2-yl)amino)-1H-pyrazol-1-yl) acetamide] |  |
|  | CC[C@H](Cn1ccc2cnc(Nc3cnn(CC(=O)N4CCOC4=O)c3)nc21)C(C)C [Example 3, (5)-3-(2-(4-((7-(2-ethyl-3-methylbutyl)-7H-pyrrolo[2,3-d]pyrimidin-2-yl)amino)-1H-pyrazol-1-yl)acetyl) oxazolidin-2-one] | < 100 |
| < 100 | CCC(CC)Cn1ccc2cnc(Nc3cnn(CC(N)=O)c3)nc21 [Example 7, 2-(4-((7-(2-ethylbutyl)-7H-pyrrolo[2,3-d]pyrimidin-2-yl)amino)-1H-pyrazol-1-yl) acetamide] |  |
|  | CC[C@@H](Cn1ccc2cnc(Nc3cnn(C4CCNC4=O)c3)nc21)C(C)C (stereo partly shown) [Example 8] | < 100 |
